Results taken from patent US20130204017A1, “GLYCERYL ASCORBIC ACID ACYLATED DERIVATIVE OR ITS SALT, PRODUCTION METHOD THEREOF, AND COSMETICS” (SEIWA KASEI COMPANY, LIMITED, priority 2012, published 2013).

Legend:
[1] = test system: Normal human dermal fibroblasts; test: Collagen production evaluation test (Sircol collagen assay); assay type: cell-based; conditions: sample 100 μM, cultured 48 hours; for activity at 100 µM: Homo sapiens, Fibroblast, read-out: Collagen production promoting effect (collagen production amount, control group is 100%)
Protocol: The collagen production promoting effects of the glyceryl ascorbic acid acylated derivatives of the present invention were evaluated, according to the following procedure. As comparison, arbutin, ascorbic acid, sodium ascorbate, magnesium ascorbyl phosphate, glucosyl ascorbic acid, 3-O-glyceryl ascorbic acid and 2-O-glyceryl ascorbic acid were used like in Test Example 1.
Normal human dermal fibroblasts were regulated with a 10% (v/v) fetal bovine serum (manufactured by Invitrogen)-containing D-MEM so as to give a cell density of 2.5×10^4 cells/well, then, pre-incubation for 24 hours was performed on a 96-well plate. After the medium was removed, a sample regulated with a 5% (v/v) fetal bovine serum-containing D-MEM to a concentration of 100 μM was added to each well, then, cultured for 48 hours at 37° C. and 5% CO2. After completion of culturing, the amount of free collagen was measured using Sircol collagen assay kit (manufactured by Biocolor).
The collagen production amount in applying a sample at a concentration of 100 μM is obtained as % value when the control group is 100%, and the results are shown in Table 4 based on the following standard.

B16 melanoma 4A5 cell = test: Melanin production suppressing evaluation test (theophylline-induced melanine production); assay type: cell-based, mouse; conditions: sample at a concentration of 100 μl or less; 0.2 mM theophylline; culturing 3 days
Protocol: As a test for a whitening effect, evaluation of the action of B16 melanoma 4A5 cell on theophylline-induced melanine production was carried out on a glyceryl ascorbic acid acylated derivative of the present invention, according to the following procedure. The same evaluations were carried out also on arbutin, ascorbic acid, sodium ascorbate, magnesium ascorbyl phosphate, glucosyl ascorbic acid, and 3-O-glyceryl ascorbic acid and 2-O-glyceryl ascorbic acid obtained in the Synthesis Examples mentioned above, as comparison.
(1) B16 mouse melanoma 4A5 strain was sowed onto a 48-well plate at a cell density of 2.0×10^4 cells/well. (2) Culturing was performed for 24 hours with Dulbecco's Modified Eagle's medium (manufactured by SIGMA. Hereinafter, abbreviated as D-MEM) containing 10% fetal bovine serum (manufactured by Roshe Diagnostics). Then, it was changed to 0.2 mM theophylline and a 10% fetal bovine serum-containing D-MEM which contains a sample of given concentration. (3) After culturing for 3 days in the co-existence of a sample, the medium was removed using an aspirator. Then, after distilled water was added, cells were broken by an ultrasonic wave. (4) Thereafter, the amount of protein was determined using BCA protein assay kit (manufactured by PIERCE), and the produced amount of melanine was measured by an alkali solubilizing method described later. To the cell-destructed solution was added sodium hydroxide so as to give a final concentration of 2 mol/L and the mixture was dissolved by heating (60° C., 15 minutes), then, the absorbance at 450 nm was measured using a micro plate reader. The melanine amount was calculated from a calibration curve made using synthetic melanine (SIGMA) as a standard. The melanine amount per unit protein was calculated by dividing the melanine amount by the protein amount. (5) The melanine production suppressing rate was calculated according to the following formula.
Melanine production suppressing rate(%)=[1−(A−B)/(C−B)]×100
[wherein, A represents the melanine amount per unit protein (g/g) in adding a sample, B represents the melanine amount per unit protein (g/g) in the normal group, and C represents the melanine amount per unit protein (g/g) in the control group.]
The normal group means the case where neither theophylline nor sample was added.(that is; theophylline(−) and sample(−))
The control group means the case where neither sample was not added but theophylline was added.(that is; theophylline (+) and sample(−))
In the following Tables, the melanine production suppressing rate in applying a sample at a concentration of […] or less is expressed as described below.

[2] = Stability test: odor and color change of 2% aqueous solution stored at 50° C.; assay type: physicochemical; conditions: pH7, ten panelists
Protocol: Using 2-O-glyceryl-6-O-octanoyl ascorbic acid obtained in Example 2 and 2-O-glyceryl-6-O-octadecanoyl ascorbic acid obtained in Example 9, an evaluation was made on the stability of odor and color change when stored at 50° C. for 4 weeks, according to the following procedure. For comparison, magnesium ascorbyl phosphate, ascorbic acid and 3-O-glyceryl ascorbic acid were used.
Aqueous solutions (2%) of various test samples were adjusted to pH7 with a dilute sodium hydroxide aqueous solution or a dilute hydrochloric acid aqueous solution, and charged into 50 mL screw tubes. The tubes were sealed and stored at 50° C. for 4 weeks. The odor and degree of color change immediately after preparation, after storage for two weeks and after storage for four weeks were evaluated by ten panelists based on the following methods and according to the following criterion.
3: almost no change as compared with that immediately after preparation
2: color change is observed as compared with that immediately after preparation
1: intense color change is observed as compared with that immediately after preparation
Based on the evaluation results, classification was conducted as shown below.
◯: total point of 10 panelists is 25 or more
Δ: total point of 10 panelists is 16 to 24
x: total point of 10 panelists is 15 or less

[3] = In vivo moisturizing test (stratum corneum water content, forearm); conditions: 5 g in 100 mL water, pH 7, 0.3 mL on forearm, 10 subjects
Protocol: An in vitro moisturizing test and an in vivo moisturizing test of the glyceryl ascorbic acid acylated derivatives of Examples 1 to 6 were carried out according to the following manner. For comparison, sodium ascorbate, magnesium ascorbyl phosphate, glucosyl ascorbic acid, 3-O-glyceryl ascorbic acid, 2-O-glyceryl ascorbic acid and 3-O-cetyl ascorbic acid were used.
Each test sample (5 g) was dissolved in 100 mL of water, and pH thereof was adjusted to 7 with a dilute sodium hydroxide aqueous solution or a dilute hydrochloric acid aqueous solution to prepare a sample solution. A paper filter of 1 cm×1 cm was placed on a forearm portion and 0.3 mL of the prepared sample solution was applied on this, and covered and fixed by a polyamide film. Then, 3 hours and 8 hours after, the stratum corneum water content at the sample-applied portion was measured using CORNEOMETER CM825 (manufactured by Integral Corporation). The test was carried out with 10 subjects, and evaluated according to the following criterion (evaluation standard).
3: Stratum corneum water content increased by 15% or more, based on the water content before sample application
2: Stratum corneum water content increased by 0 to less than 15%, based on the water content before sample application
1: There was no change or there was a reduction in stratum corneum water content, before and after sample application.
Based on the evaluation results, classification was set as described below.
◯: Total points of 10 subjects is 25 or more
Δ: Total points of 10 subjects is 16 to 24
x: Total points of 10 subjects is 15 or less

[4] = storage period 0 (immediately after preparation)

Molecule `CCCCCCCC(=O)OC1=C(OCC(O)CO)C(=O)O[C@@H]1[C@@H](O)CO` (some centres unmarked) [Example 18, 2-O-glyceryl-3-O-octanoyl ascorbic acid] has an activity at 100 µM [1] of 100 to 200%.
For `CCCCCCCCCCCCCCCC(=O)OCC(O)COC1=C(O)[C@@H]([C@@H](O)COC(=O)CCC)OC1=O` (some centres unmarked) [Example 16, 2-O-(3′-O-hexadecanoylglyceryl)-6-O-butanoyl ascorbic acid], the “Whitening effect (melanine production suppressing rate)” value (“Whitening effect” below) (B16 melanoma 4A5 cell) was “⊚ (50% or more)”.
`CCCCCCCCCCCC(=O)OCC(O)COC1=C(O)C(=O)O[C@@H]1[C@@H](O)COC(=O)CCC` (some centres unmarked) [Example 23, 3-O-(3′-O-dodecanoylglyceryl)-6-O-butanoyl ascorbic acid] showed an activity at 100 µM [1] of 100 to 200%.
For `OC[C@H]1O[C@@H](Oc2ccc(O)cc2)[C@H](O)[C@@H](O)[C@@H]1O` [Arbutin, reference compound], the “Whitening effect” value (B16 melanoma 4A5 cell) was “⊚ (50% or more)” and the activity at 100 µM [1] was < 100%.
In the case of `CCCC(=O)OCC(O)COC1=C(OC(=O)CCC)[C@@H]([C@@H](O)COC(=O)CCC)OC1=O` (some centres unmarked) [Example 13, 2-O-(3′-O-butanoylglyceryl)-3,6-di-O-butanoyl ascorbic acid], the “Whitening effect” value (B16 melanoma 4A5 cell) is reported as “⊚ (50% or more)” and the activity at 100 µM [1] is reported as 100 to 200%.
With `O=C1O[C@H]([C@@H](O)CO)C(O)=C1O` [Ascorbic acid] the “Whitening effect” value (B16 melanoma 4A5 cell) was “Δ (Less than 30%)”, the activity at 100 µM [1] was 100 to 200% and the Odor ([2]; storage 2 weeks at 50° C.) was “Δ (total point of 10 panelists is 16 to 24)”. The Color change [2, 4] was “◯ (total point of 10 panelists is 25 or more)” and the Odor [2, 4] was “◯ (total point of 10 panelists is 25 or more)”.
In the case of `CCCCCCCCCCCC(=O)OC[C@H](O)[C@H]1OC(=O)C(OCC(O)CO)=C1O` (some centres unmarked) [Example 5, 2-O-glyceryl-6-O-dodecanoyl ascorbic acid], the “Whitening effect” value (B16 melanoma 4A5 cell) is reported as “⊚ (50% or more)”, the “in vivo moisturizing (stratum corneum water content) after 3 hours” value ([3]; 3 hours) is reported as “◯ (Total points of 10 subjects is 25 or more)” and the “in vivo moisturizing (stratum corneum water content) after 8 hours” value ([3]; 8 hours) is reported as “◯ (Total points of 10 subjects is 25 or more)”. For the same molecule, the activity at 100 µM [1] was 100 to 200%.
`CCCC(=O)OC[C@H](O)[C@H]1OC(=O)C(O)=C1OCC(O)CO` (some centres unmarked) [Example 20, 3-O-glyceryl-6-O-butanoyl ascorbic acid] showed an activity at 100 µM [1] of 100 to 200%.
In the case of `CCCCCCCCCCCCCCCCCC(=O)OC[C@H](O)[C@H]1OC(=O)C(OCC(O)CO)=C1O` (some centres unmarked) [Example 9, 2-O-glyceryl-6-O-octadecanoyl ascorbic acid], the “Whitening effect” value (B16 melanoma 4A5 cell) is reported as “⊚ (50% or more)”, the Color change ([2]; storage 2 weeks at 50° C.) is reported as “◯ (total point of 10 panelists is 25 or more)” and the Odor ([2]; storage 2 weeks at 50° C.) is reported as “◯ (total point of 10 panelists is 25 or more)”. For the same molecule, the Color change ([2]; storage 4 weeks at 50° C.) was “◯ (total point of 10 panelists is 25 or more)”, the Odor ([2]; storage 4 weeks at 50° C.) was “◯ (total point of 10 panelists is 25 or more)” and the Color change [2, 4] was “◯ (total point of 10 panelists is 25 or more)”. For the same molecule, the Odor [2, 4] was “◯ (total point of 10 panelists is 25 or more)”.
With `CCCCCCCC(=O)OC[C@H](O)[C@H]1OC(=O)C(O)=C1OCC(O)CO` (some centres unmarked) [Example 21, 3-O-glyceryl-6-O-octanoyl ascorbic acid] the “Whitening effect” value (B16 melanoma 4A5 cell) was “⊚ (50% or more)”.
For `CCCC(=O)OCC(O)COC1=C(O)[C@@H]([C@@H](O)COC(=O)CCC)OC1=O` (some centres unmarked) [Example 11, 2-O-(3′-O-butanoylglyceryl)-6-O-butanoyl ascorbic acid], the “Whitening effect” value (B16 melanoma 4A5 cell) was “◯ (30 to 49%)”.
In the case of `CCCCCCCCCCCC(=O)OC[C@H](O)[C@H]1OC(=O)C(OCC(O)COC(=O)CCC)=C1O` (some centres unmarked) [Example 17, 2-O-(3′-O-butanoylglyceryl)-6-O-dodecanoyl ascorbic acid], the activity at 100 µM [1] is reported as 100 to 200%.
In the case of `O=C1O[C@H]([C@@H](O)CO)C([O-])=C1OP(=O)([O-])[O-].O=C1O[C@H]([C@@H](O)CO)C([O-])=C1OP(=O)([O-])[O-].[Mg+2].[Mg+2].[Mg+2]` [Magnesium ascorbyl phosphate], the “Whitening effect” value (B16 melanoma 4A5 cell) is reported as “Δ (Less than 30%)”, the “Collagen production promoting effect (collagen production amount, control group is 100%)” value [1] is reported as “+ (100 to 200%)” and the Color change ([2]; storage 2 weeks at 50° C.) is reported as “Δ (total point of 10 panelists is 16 to 24)”. For the same molecule, the Odor ([2]; storage 2 weeks at 50° C.) was “◯ (total point of 10 panelists is 25 or more)”, the Odor ([2]; storage 4 weeks at 50° C.) was “◯ (total point of 10 panelists is 25 or more)” and the Color change [2, 4] was “◯ (total point of 10 panelists is 25 or more)”. The Odor [2, 4] was “◯ (total point of 10 panelists is 25 or more)”.
In the case of `O=C1O[C@H]([C@@H](O)CO)C([O-])=C1O.[Na+]` [Sodium ascorbate, reference compound], the “Whitening effect” value (B16 melanoma 4A5 cell) is reported as “Δ (Less than 30%)” and the activity at 100 µM [1] is reported as 100 to 200%.
With `CCCCCCCC/C=C\CCCCCCCC(=O)OC[C@H](O)[C@H]1OC(=O)C(OCC(O)CO)=C1O` (some centres unmarked) [Example 10, 2-O-glyceryl-6-O-oleoyl ascorbic acid] the “Whitening effect” value (B16 melanoma 4A5 cell) was “⊚ (50% or more)”.
In the case of `CCCCCCCCCCCC(=O)OC1=C(OCC(O)CO)C(=O)OC1C(O)COC(=O)CCCCCCC` (centres unmarked) [Example 19, 2-O-glyceryl-3-O-dodecanoyl-6-O-octanoy ascorbic acid], the “Whitening effect” value (B16 melanoma 4A5 cell) is reported as “⊚ (50% or more)”.
`CCCCCCCCCCCCCCCC(=O)OC[C@H](O)[C@H]1OC(=O)C(O)=C1OCC(O)CO` (some centres unmarked) [Example 22, 3-O-glyceryl-6-O-hexadecanoyl ascorbic acid] gave an activity at 100 µM [1] of 100 to 200%.
`CCCCCCCC(=O)OCC(O)COC1=C(O)[C@@H]([C@@H](O)COC(=O)CCC)OC1=O` (some centres unmarked) [Example 15, 2-O-(3′-O-octanoylglyceryl)-6-O-butanoyl ascorbic acid] gave an activity at 100 µM [1] of 100 to 200%.
With `CCCCCCCCCCCCCC(=O)OC[C@H](O)[C@H]1OC(=O)C(OCC(O)CO)=C1O` (some centres unmarked) [Example 7, 2-O-glyceryl-6-O-tetradecanoyl ascorbic acid] the “Whitening effect” value (B16 melanoma 4A5 cell) was “⊚ (50% or more)”.
